Earlier results in paper PMC8025584, “Identification of multipotent drugs for COVID-19 therapeutics with the evaluation of their SARS-CoV2 inhibitory activity” (Computational and Structural Biotechnology Journal, 2021).
Structures can show the parent of a compound that is named as a salt. Where two headings read alike, the source gives them in different places. Where no end group is shown, it is not given here.

System: differentially expressed human proteins in COVID-19
Settings: cited from earlier work
[1] = gene HCK, drug-gene interaction listed in DGIdb export, ref DGIdb
[2] = gene TNF, drug-gene interaction listed in DGIdb export, ref DGIdb
[3] = gene F5, drug-gene interaction listed in DGIdb export, ref DGIdb

In the case of `COC1=CC(c2cc3ccccc3[nH]2)=N/C1=C\c1[nH]c(C)cc1C` [OBATOCLAX MESYLATE], the interaction_types (gene BCL2A1, ref DGIdb) is given as “inhibitor”.

For `CN(C)CC/C=C1/c2ccccc2COc2ccc(CC(=O)O)cc21` [OLOPATADINE, reference compound], the interaction_types (gene S100A12, ref DGIdb) is listed as “antagonist”.

In the case of `Cc1ccc(-n2nc(C(C)(C)C)cc2NC(=O)NCc2cc(F)ccc2Oc2ccc3c(cnn3CCO)c2)cc1` [PEXMETINIB], the interaction_types [1] is given as “inhibitor”.

In the case of `CN(c1ncccc1CNc1nc(Nc2ccc3c(c2)CC(=O)N3)ncc1C(F)(F)F)S(C)(=O)=O` [PF-00562271], the interaction_types (gene PTK2B, ref DGIdb) is listed as “inhibitor”.

For `O=C(CCc1ccc(O)cc1)c1c(O)cc(O)cc1O` [PHLORETIN], the interaction_types (gene AQP9, ref DGIdb) is given as “inhibitor”.

For `CC(C)(C)c1[nH]cnc1/C=c1\[nH]c(=O)/c(=C/c2ccccc2)[nH]c1=O` [PLINABULIN], the interaction_types (gene TUBA4A, ref DGIdb) is listed as “inhibitor”.

For `COc1cc([C@@H]2c3cc4c(cc3[C@H](O)[C@H]3COC(=O)[C@H]23)OCO4)cc(OC)c1OC` [PODOFILOX, reference compound], the interaction_types (gene TUBA4A, ref DGIdb) is listed as “inhibitor”.

In the case of `CC1(C)OC(c2ccc(S(N)(=O)=O)cc2)=C(c2cccc(F)c2)C1=O` [POLMACOXIB], the interaction_types (gene CA1, ref DGIdb) is listed as “inhibitor”.

For `Nc1cccc2c1C(=O)N(C1CCC(=O)NC1=O)C2=O` (centres unmarked) [POMALIDOMIDE], the interaction_types [2] is given as “inhibitor”.

For `COc1cc2nc(N3CCN(C(=O)c4ccco4)CC3)nc(N)c2cc1OC` [PRAZOSIN], the interaction_types (gene KCNH7, ref DGIdb) is given as “inhibitor”.

For `CC(C)C[C@H](CN)CC(=O)O` [PREGABALIN, reference compound], the interaction_types is listed as “modulator¦inhibitor”.

For `NC(=O)c1cnc(N[C@@H]2CCCC[C@@H]2N)nc1Nc1cccc(-n2nccn2)c1` [PRT-2607], the interaction_types (gene FGR, ref DGIdb) is listed as “inhibitor”.

In the case of `CN[C@@H](C)[C@@H](O)c1ccccc1` [PSEUDOEPHEDRINE], the interaction_types [2] is listed as “inhibitor”.

For `CC(=O)O[C@H]1C(=O)[C@@]2(C)[C@H]([C@H](OC(=O)c3ccccc3)[C@]3(O)C[C@H](OC(=O)[C@H](O)[C@@H](NC(=O)c4ccccc4)c4ccccc4)C(C)=C1C3(C)C)[C@]1(OC(C)=O)CO[C@@H]1C[C@@H]2O` [Paclitaxel, reference compound], the interaction_types (gene TUBA4A, ref DGIdb) is listed as “inhibitor”.

For `CCC1NC(=O)c2cc(S(N)(=O)=O)c(Cl)cc2N1` (centres unmarked) [QUINETHAZONE], the interaction_types (gene CA1, ref DGIdb) is listed as “inhibitor”.

For `CCCCCc1cccc(CC(=O)O)c1` [SETOGEPRAM], the interaction_types (gene GPR84, ref DGIdb) is listed as “antagonist”.

For `CCN1CCCC1CNC(=O)c1cc(S(N)(=O)=O)ccc1OC` (centres unmarked) [SULPIRIDE], the interaction_types (gene CA1, ref DGIdb) is given as “inhibitor”.

In the case of `Cc1ccc(C(=O)Nc2ccc(S(=O)(=O)O)c3cc(S(=O)(=O)O)cc(S(=O)(=O)O)c23)cc1NC(=O)c1cccc(NC(=O)Nc2cccc(C(=O)Nc3cc(C(=O)Nc4ccc(S(=O)(=O)O)c5cc(S(=O)(=O)O)cc(S(=O)(=O)O)c45)ccc3C)c2)c1` [SURAMIN], the interaction_types (gene P2RY13, ref DGIdb) is given as “antagonist”.

For `C[C@@H](C(=O)O)c1ccc(-c2ccccc2)c(F)c1` [TARENFLURBIL], the interaction_types (gene PSENEN, ref DGIdb) is given as “modulator”.

In the case of `CCOC(=O)c1ccc(C#Cc2ccc3c(c2)C(C)(C)CCS3)nc1` [TAZAROTENE, reference compound], the interaction_types (gene RXRB, ref DGIdb) is listed as “agonist”.

For `COc1cc2nc(N3CCN(C(=O)C4CCCO4)CC3)nc(N)c2cc1OC` (centres unmarked) [TERAZOSIN], the interaction_types (gene KCNH7, ref DGIdb) is listed as “inhibitor”.

For `C[C@]12C=CC(=O)C=C1CC[C@@H]1[C@@H]2CC[C@]2(C)OC(=O)CC[C@@H]12` [TESTOLACTONE], the interaction_types (gene CYP19A1, ref DGIdb) is listed as “inhibitor”.

In the case of `Cc1cc(-c2cc(OC(=O)c3ccccc3)ccc2Cl)cc2nnc(Nc3ccc(OCCN4CCCC4)cc3)nc12` [TG100-801], the interaction_types (gene FGR, ref DGIdb) is given as “inhibitor” and the interaction_types [1] is given as “inhibitor”.

In the case of `O=C1CCC(N2C(=O)c3ccccc3C2=O)C(=O)N1` (centres unmarked) [THALIDOMIDE, reference compound], the interaction_types [2] is given as “inhibitor”.

In the case of `CC1(C)O[C@@H]2[C@@H](CO[C@@]3(COS(N)(=O)=O)OC(C)(C)O[C@@H]23)O1` [TOPIRAMATE], the interaction_types (gene CA1, ref DGIdb) is given as “inhibitor”.

For `CC1=C(/C=C/C(C)=C/C=C/C(C)=C/C(=O)O)C(C)(C)CCC1` [TRETINOIN, reference compound], the interaction_types (gene RXRB, ref DGIdb) is given as “agonist”.

In the case of `NS(=O)(=O)c1cc2c(cc1Cl)NC(C(Cl)Cl)NS2(=O)=O` (centres unmarked) [TRICHLORMETHIAZIDE, reference compound], the interaction_types (gene CA1, ref DGIdb) is listed as “inhibitor”.

In the case of `Cc1ccc2c(=O)c3cccc(CC(=O)O)c3oc2c1C` [VADIMEZAN], the interaction_types [2] is listed as “inducer”.

For `CC[C@]1(O)C[C@@H]2CN(CCc3c([nH]c4ccccc34)[C@@](C(=O)OC)(c3cc4c(cc3OC)N(C)[C@H]3[C@@](O)(C(=O)OC)[C@H](OC(C)=O)[C@]5(CC)C=CCN6CC[C@]43[C@@H]65)C2)C1` [VINBLASTINE SULFATE], the interaction_types (gene TUBA4A, ref DGIdb) is listed as “inhibitor”.

For `CC[C@]1(O)C[C@H]2CN(CCc3c([nH]c4ccccc34)[C@@](C(=O)OC)(c3cc4c(cc3OC)N(C=O)[C@H]3[C@@](O)(C(=O)OC)[C@H](OC(C)=O)[C@]5(CC)C=CCN6CC[C@]43[C@@H]65)C2)C1` [VINCRISTINE SULFATE], the interaction_types (gene TUBA4A, ref DGIdb) is listed as “inhibitor”.

For `CC[C@]12C=CCN3CC[C@@]4(c5cc([C@@]6(C(=O)OC)C[C@@H]7C[C@@H](C(C)(F)F)CN(Cc8c6[nH]c6ccccc86)C7)c(OC)cc5N(C)[C@H]4[C@@](O)(C(=O)OC)[C@@H]1OC(C)=O)[C@@H]32` [VINFLUNINE], the interaction_types (gene TUBA4A, ref DGIdb) is given as “inhibitor”.

In the case of `CCC1=C[C@@H]2CN(C1)Cc1c([nH]c3ccccc13)[C@@](C(=O)OC)(c1cc3c(cc1OC)N(C)[C@H]1[C@@](O)(C(=O)OC)[C@H](OC(C)=O)[C@]4(CC)C=CCN5CC[C@]31[C@@H]54)C2` [VINORELBINE TARTRATE], the interaction_types (gene TUBA4A, ref DGIdb) is given as “inhibitor”.

In the case of `CN(CCO)CC(O)Cn1cnc2c1c(=O)n(C)c(=O)n2C` (centres unmarked) [XANTHINOL], the interaction_types (gene RPL3, drug-gene interaction listed in DGIdb export, ref DGIdb) is given as “binder”.

In the case of `CC(C)c1cc(CNc2nc(Nc3cc(C4CC4)[nH]n3)cc(N3CCN(C)CC3)n2)on1` [XL-228], the interaction_types (gene FGR, ref DGIdb) is given as “inhibitor” and the interaction_types [1] is given as “inhibitor”.

For `C=CC(=O)N1CCC([C@@H]2CCNc3c(C(N)=O)c(-c4ccc(Oc5ccccc5)cc4)nn32)CC1` [ZANUBRUTINIB], the interaction_types (gene FGR, ref DGIdb) is given as “inhibitor”.

For `CSCC[C@@H]1NC(=O)[C@H](CC(C)C)NC(=O)[C@H](CCCNC(=N)N)NC(=O)[C@H](CO)NC(=O)[C@@H]2CSSC[C@@H]3NC(=O)[C@H](CO)NC(=O)CNC(=O)[C@H]([C@@H](C)O)NC(=O)[C@H](CSSC[C@H](N)C(=O)N[C@@H](CCCCN)C(=O)NCC(=O)N[C@@H](CCCCN)C(=O)NCC(=O)N[C@@H](C)C(=O)N[C@@H](CCCCN)C(=O)N2)NC(=O)[C@H](CSSC[C@@H](C(N)=O)NC(=O)[C@H](CCCCN)NC(=O)CNC(=O)[C@H](CO)NC(=O)[C@H](CCCNC(=N)N)NC3=O)NC(=O)[C@H](CC(=O)O)NC(=O)[C@H](Cc2ccc(O)cc2)NC1=O` [ZICONOTIDE], the interaction_types is listed as “inhibitor”.

In the case of `NS(=O)(=O)Cc1noc2ccccc12` [ZONISAMIDE], the interaction_types (gene CA1, ref DGIdb) is listed as “inhibitor”.

For `CCCN(c1ccncc1F)n1cc(C)c2ccccc21` [[…]], the interaction_types (gene KCNH7, ref DGIdb) is listed as “blocker”.

In the case of `C[C@@H]1O[C@@H](O[C@@H]2[C@@H](NC(=O)c3cc(=O)[nH]c(=O)[nH]3)C[C@@H](C(=O)NCCNC(=O)COCCOCC(=O)Nc3cc(S(=O)(=O)O)cc4cc(S(=O)(=O)O)cc(S(=O)(=O)O)c34)C[C@H]2O[C@@H]2O[C@H](CO)[C@H](O)[C@H](O[C@@H](CC3CCCCC3)C(=O)O)[C@H]2OC(=O)c2ccccc2)[C@@H](O)[C@H](O)[C@@H]1O` [[…]], the interaction_types (gene SELL, ref DGIdb) is listed as “antagonist”.

For `Nc1cnc(-c2cc(Cl)cc(Cl)c2Cl)c(N)n1` [[…]], the interaction_types (gene CACNA1A, drug-gene interaction listed in DGIdb export, ref DGIdb) is given as “blocker”.

For `c1ccc(-c2[nH]ncc2-c2ccnc3ccccc23)nc1` [chembl:CHEMBL261454], the interaction_types (gene GAK, drug-gene interaction listed in DGIdb export, ref DGIdb) is listed as “inhibitor”.

For `COc1cc(/C=N/NC(=O)c2ccc3c(c2)OCO3)ccc1OCc1ccccc1` [chembl:CHEMBL1290251], the interaction_types (gene FPR1, ref DGIdb) is listed as “agonist”.

For ADALIMUMAB, the interaction_types [2] is given as “antibody¦inhibitor”.

For ALDESLEUKIN, the interaction_types is listed as “agonist”.

For BAMINERCEPT, the interaction_types (gene TNFSF14, ref DGIdb) is listed as “inhibitor”.

For BASILIXIMAB, the interaction_types (gene IL2RG, ref DGIdb) is listed as “inhibitor”.

In the case of BELIMUMAB, the interaction_types (gene TNFSF13B, drug-gene interaction listed in DGIdb export, ref DGIdb) is listed as “antibody¦inhibitor¦modulator”.

In the case of BRENTUXIMAB VEDOTIN, the interaction_types (gene TUBA4A, ref DGIdb) is listed as “inhibitor”.

In the case of CEPROTIN, the interaction_types [3] is listed as “inactivator”.

In the case of DENENICOKIN, the interaction_types (gene IL2RG, ref DGIdb) is listed as “agonist”.

For DROTRECOGIN ALFA (ACTIVATED), the interaction_types [3] is given as “inhibitor”.

In the case of ETANERCEPT, the interaction_types [2] is given as “inhibitor¦antibody”.

In the case of FILGRASTIM, the interaction_types (gene CSF2RB, ref DGIdb) is given as “agonist” and the interaction_types (gene CSF3R, ref DGIdb) is given as “stimulator¦agonist”.

For INFLIXIMAB, the interaction_types [2] is listed as “inhibitor”.

For “INTERLEUKIN 15, RECOMBINANT NON-GLYCOSYLATED”, the interaction_types (gene IL2RG, ref DGIdb) is listed as “agonist”.

For LIPEGFILGRASTIM, the interaction_types (gene CSF3R, ref DGIdb) is listed as “agonist”.

For LVVYPWT [SPINORPHIN], the interaction_types (gene FPR1, ref DGIdb) is listed as “antagonist”.

For NADROPARIN, the interaction_types (gene FOS, ref DGIdb) is listed as “inhibitor”.

In the case of PEGFILGRASTIM, the interaction_types (gene CSF3R, ref DGIdb) is given as “agonist”.

For POLAPREZINC, the interaction_types [2] is given as “inhibitor”.

In the case of REGRAMOSTIM, the interaction_types (gene CSF2RB, ref DGIdb) is given as “agonist”.

In the case of RILONACEPT, the interaction_types (gene IL1RN, ref DGIdb) is given as “binder”.

For SARGRAMOSTIM, the interaction_types (gene CSF2RB, ref DGIdb) is given as “agonist”.

In the case of THROMBIN, the interaction_types [3] is listed as “activator”.

For TRASTUZUMAB EMTANSINE, the interaction_types is given as “inhibitor”.
